# Source: patent US9566269B2, “Modified release compositions of epalrestat or a derivative thereof and methods for using the same” (Bionevia Pharmaceuticals Inc., priority 2011, dated 2017)
# Tests used:
# [1] = cited from earlier work
# [2] = cited from earlier work; remark: listed apart in the source
# [3] = Ionization study in different pH environments (calculated from pKa); type: physicochemical
# Description: The percentage ionization of Epalrestat in different pH environments of the human gastrointestinal tract was calculated based on the pKa value (3.61).
# [4] = immediate release 50 mg dosage, healthy adult volunteers
smiles,measurement,setting,value
"C/C(C=C1SC(=S)N(CC(=O)O)C1=O)=C\c1ccccc1 (single isomer, unassigned) [epalrestat, 5-[(1Z,2E)-2-methyl-3-phenylpropenylidene]-4-oxo-2-thioxo-3-thiazolidineacetic acid]",Plasma level,[1]; 4 hours after administration of 50 mg tablets of epalrestat free acid,370 ng/mL
same,Cmax,[1]; [4],3900 ng/mL
same,t1/2,[1]; [4],1.8 h
same,tmax,[1]; [4],1.05 h
same,total AUC0-∞,[1]; [4],6400 ng·h/mL
same,pKa value,[2],3.61
same,% Ionized,[3]; pH 1.2,0%
same,% Ionized,[3]; pH 3.0,20.0%
same,% Ionized,[3]; pH 3.5,44.0%
same,% Ionized,[3]; pH 4.0,71.0%
same,% Ionized,[3]; pH 4.5,89.0%
same,% Ionized,[3]; pH 5.0,96.0%
same,% Ionized,[3]; pH 5.5,99.0%
same,% Ionized,[3]; pH 6.0,100.0%
same,% Ionized,[3]; pH 6.8,100.0%
